According to patent publication US9028856B2, “Synergistic pesticide compositions” (priority 2008, dated 2015):
“Also recorded” adds a separate entry of the source.

Tested on: tropical house mosquito Culex quinquefasciatus (adults, 3 days old)
Assay: Efficacy of formulations on surfaces (glazed/unglazed tiles, plywood), ten 3 day old mosquitoes, 3 min exposure
Assay type: in vivo
Details: for efficacy enhancement of the insecticide by the additive (summary in words): Culex quinquefasciatus, 3 min exposure, mostly 0.1% bendiocarb + 1% additive on glazed tiles
Procedure: The ingredients were diluted in acetone to give a concentration which corresponds to the desired quantity of a.i./m^2. A 1 ml quantity of the solution was applied by pipette onto the 15 cm×15 cm surfaces without treating the outer edge of 1 cm.
(§1) Ten 3 day old Culex quinquefasciatus mosquitoes were exposed to each treatment for 3 minutes under a perforated petri dish, and then a clean untreated white paper index card was moved between treated surface and petri dish. A water-soaked cotton pad was applied immediately after.
Each test consisted of three replicates (three batches of ten mosquitoes were exposed for three minutes to the same surface, each one hour later), of which the mean values are calculated.
The test insects were Culex quinquefasciatus (adults, 3 days old). The compositions were evaluated for their ability to provide effective knock down after 3, 9, 15, and 30 minutes, 1, 2, 3, 4 and 24 hours (mortality). The experiments were performed in triplicate on glazed tile, but not repeated on wood.
Test Insects are Culex quinquefasciatus (adults, 3 days old). The Application provides the technical compounds were dissolved in acetone and applied as 1 ml solutions onto glazed tiles (15 cm×15 cm). An evaluation is provided at knock down after 3, 9, 15, and 30 minutes, 1, 2, 3, 4 and 24 hours (mortality). There are 3 replicates.
Test Insects: Culex quinquefasciatus (adults, 3 days old)
Application: The technical compounds were dissolved in acetone and applied as 1 ml solutions onto glazed tiles (15 cm×15 cm).
Evaluation: Knock down after 3, 9, 15, and 30 minutes, 1, 2, 3, 4 and 24 hours (mortality) […]
Application: The active ingredients were applied as 1 ml acetone solutions onto glazed tiles (15 cm×15 cm) […]
as §1, with “For the mosquitoes, the USDA Petri Dish Method is used. Ten” for “Ten”, “are” for “were”, “dish” for “dish,”, “is” for “was”, “after. […]” for “after.”

[1] = 3′, in acetone on glazed tiles, Table 84
[2] = 9′, in acetone on glazed tiles, Table 84
[3] = 15′, in acetone on glazed tiles, Table 84
[4] = 30′, in acetone on glazed tiles, Table 84
[5] = 1 h, in acetone on glazed tiles, Table 84
[6] = 2 h, in acetone on glazed tiles, Table 84
[7] = 3 h, in acetone on glazed tiles, Table 84
[8] = 4 h, in acetone on glazed tiles, Table 84
[9] = 24 h (mortality), in acetone on glazed tiles, Table 84

CC1(C)CC(OC(=O)CCCCCCCCC(=O)OC2CC(C)(C)NC(C)(C)C2)CC(C)(C)N1
% KD and Mortality [1]: 0% | % KD and Mortality [2]: 0% | % KD and Mortality [3]: 0% | % KD and Mortality [4]: 0% | % KD and Mortality [5]: 3% | % KD and Mortality [6]: 0% | % KD and Mortality [7]: 3% | % KD and Mortality [8]: 3% | % KD and Mortality [9]: 17%

CNC(=O)Oc1cccc2c1OC(C)(C)O2 [0.1% bendiocarb]
% KD and Mortality [1]: 0% | % KD and Mortality (3′, solvent 2006-009114 (EC formulation), glazed tiles, Table 83): 10% | % KD and Mortality (3′, solvent Acetone + 0.05% citric acid, glazed tiles, Table 83): 13% | % KD and Mortality (3′, solvent Acetone, glazed tiles, Table 83): 3% | % KD and Mortality (3′, solvent Ethylacetate, glazed tiles, Table 83): 0% | % KD and Mortality (3′, solvent Methanol, glazed tiles, Table 83): 0% | % KD and Mortality [2]: 0% | % KD and Mortality (9′, solvent 2006-009114 (EC formulation), glazed tiles, Table 83): 17% | % KD and Mortality (9′, solvent Acetone + 0.05% citric acid, glazed tiles, Table 83): 33% | % KD and Mortality (9′, solvent Acetone, glazed tiles, Table 83): 3% | % KD and Mortality (9′, solvent Ethylacetate, glazed tiles, Table 83): 3% | % KD and Mortality (9′, solvent Methanol, glazed tiles, Table 83): 0% | % KD and Mortality [3]: 3% | % KD and Mortality (15′, solvent 2006-009114 (EC formulation), glazed tiles, Table 83): 23% | % KD and Mortality (15′, solvent Acetone + 0.05% citric acid, glazed tiles, Table 83): 70% | % KD and Mortality (15′, solvent Acetone, glazed tiles, Table 83): 3% | % KD and Mortality (15′, solvent Ethylacetate, glazed tiles, Table 83): 7% | % KD and Mortality (15′, solvent Methanol, glazed tiles, Table 83): 0% | % KD and Mortality [4]: 17% | % KD and Mortality (30′, solvent 2006-009114 (EC formulation), glazed tiles, Table 83): 27% | % KD and Mortality (30′, solvent Acetone + 0.05% citric acid, glazed tiles, Table 83): 97% | % KD and Mortality (30′, solvent Acetone, glazed tiles, Table 83): 13% | % KD and Mortality (30′, solvent Ethylacetate, glazed tiles, Table 83): 27% | % KD and Mortality (30′, solvent Methanol, glazed tiles, Table 83): 13% | % KD and Mortality [5]: 50% | % KD and Mortality (1 h, solvent 2006-009114 (EC formulation), glazed tiles, Table 83): 43% | % KD and Mortality (1 h, solvent Acetone + 0.05% citric acid, glazed tiles, Table 83): 97% | % KD and Mortality (1 h, solvent Acetone, glazed tiles, Table 83): 77% | % KD and Mortality (1 h, solvent Ethylacetate, glazed tiles, Table 83): 50% | % KD and Mortality (1 h, solvent Methanol, glazed tiles, Table 83): 57% | % KD and Mortality [6]: 73% | % KD and Mortality (2 h, solvent 2006-009114 (EC formulation), glazed tiles, Table 83): 87% | % KD and Mortality (2 h, solvent Acetone + 0.05% citric acid, glazed tiles, Table 83): 97% | % KD and Mortality (2 h, solvent Acetone, glazed tiles, Table 83): 100% | % KD and Mortality (2 h, solvent Ethylacetate, glazed tiles, Table 83): 73% | % KD and Mortality (2 h, solvent Methanol, glazed tiles, Table 83): 73% | % KD and Mortality [7]: 80% | % KD and Mortality (3 h, solvent 2006-009114 (EC formulation), glazed tiles, Table 83): 93% | % KD and Mortality (3 h, solvent Acetone + 0.05% citric acid, glazed tiles, Table 83): 100% | % KD and Mortality (3 h, solvent Acetone, glazed tiles, Table 83): 100% | % KD and Mortality (3 h, solvent Ethylacetate, glazed tiles, Table 83): 70% | % KD and Mortality (3 h, solvent Methanol, glazed tiles, Table 83): 73% | % KD and Mortality [8]: 90% | % KD and Mortality (4 h, solvent 2006-009114 (EC formulation), glazed tiles, Table 83): 97% | % KD and Mortality (4 h, solvent Acetone + 0.05% citric acid, glazed tiles, Table 83): 100% | % KD and Mortality (4 h, solvent Acetone, glazed tiles, Table 83): 100% | % KD and Mortality (4 h, solvent Ethylacetate, glazed tiles, Table 83): 80% | % KD and Mortality (4 h, solvent Methanol, glazed tiles, Table 83): 73% | % KD and Mortality [9]: 100% | % KD and Mortality (24 h (mortality), solvent 2006-009114 (EC formulation), glazed tiles, Table 83): 97% | % KD and Mortality (24 h (mortality), solvent Acetone + 0.05% citric acid, glazed tiles, Table 83): 100% | % KD and Mortality (24 h (mortality), solvent Acetone, glazed tiles, Table 83): 100% | % KD and Mortality (24 h (mortality), solvent Ethylacetate, glazed tiles, Table 83): 80% | % KD and Mortality (24 h (mortality), solvent Methanol, glazed tiles, Table 83): 87%

CN1C(C)(C)CC(O)CC1(C)C [Derivative 8, 1,2,2,6,6-Pentamethyl-4-piperidinol]
efficacy enhancement of the insecticide by the additive (summary in words) (details as worded): acted weaker in both tests | efficacy enhancement of the insecticide by the additive (summary in words) (details as worded, listed as 1,2,2,6,6-Pentamethyl-4-piperidinol): no efficacy enhancement

O=C(CCCCCCCCC(=O)OCc1ccccc1)OCc1ccccc1 [Derivative 3, Sebacic acid dibenzyl ester]
efficacy enhancement of the insecticide by the additive (summary in words) (details as worded): superior to Compound A (first test) or equal (second test) | efficacy enhancement of the insecticide by the additive (summary in words) (details as worded, listed as Sebacic acid dibenzyl ester): superior to Compound A; also recorded: improved markedly the efficacy of bendiocarb

O=C(CCCCCCCCC(=O)OCc1ccccc1)OCc1ccccc1 [1% Sebacic acid dibenzyl ester]
% KD and Mortality [1]: 0% | % KD and Mortality [2]: 0% | % KD and Mortality [3]: 0% | % KD and Mortality [4]: 0% | % KD and Mortality [5]: 0% | % KD and Mortality [6]: 0% | % KD and Mortality [7]: 3% | % KD and Mortality [8]: 3% | % KD and Mortality [9]: 7%

CN1C(C)(C)CC(O)CC1(C)C [1% 1,2,2,6,6-Pentamethyl-4-piperidinol]
% KD and Mortality [1]: 0% | % KD and Mortality [2]: 0% | % KD and Mortality [3]: 0% | % KD and Mortality [4]: 0% | % KD and Mortality [5]: 0% | % KD and Mortality [6]: 0% | % KD and Mortality [7]: 0% | % KD and Mortality [8]: 0% | % KD and Mortality [9]: 0%

COC(=O)CCCCCCCCC(=O)OC [Derivative 1, Dimethyl sebacate]
efficacy enhancement of the insecticide by the additive (summary in words) (details as worded): acted weaker in both tests | efficacy enhancement of the insecticide by the additive (summary in words) (details as worded, listed as Dimethyl sebacate): no efficacy enhancement

CCCCCCCCON1C(C)(C)CC(OC(=O)CCCCCCCCC(=O)OC2CC(C)(C)N(OCCCCCCCC)C(C)(C)C2)CC1(C)C
% KD and Mortality [1]: 3% | % KD and Mortality [2]: 3% | % KD and Mortality [3]: 3% | % KD and Mortality [4]: 3% | % KD and Mortality [5]: 3% | % KD and Mortality [6]: 3% | % KD and Mortality [7]: 3% | % KD and Mortality [8]: 3% | % KD and Mortality [9]: 7%

CC1(C)CC(OC(=O)CCCCCCCCC(=O)OC2CC(C)(C)NC(C)(C)C2)CC(C)(C)N1 [Derivative 6, Bis(2,2,6,6-tetramethyl-4-piperidyl)sebacate]
efficacy enhancement of the insecticide by the additive (summary in words) (details as worded): inhibited the efficacy of bendiocarb in both tests | efficacy enhancement of the insecticide by the additive (summary in words) (details as worded, listed as bis(2,2,6,6-tetramethyl-4-piperidyl)sebacate): inhibited the efficacy of bendiocarb

COC(=O)CCCCCCCCC(=O)OC [1% Dimethyl sebacate]
% KD and Mortality [1]: 0% | % KD and Mortality [2]: 0% | % KD and Mortality [3]: 0% | % KD and Mortality [4]: 0% | % KD and Mortality [5]: 0% | % KD and Mortality [6]: 0% | % KD and Mortality [7]: 0% | % KD and Mortality [8]: 0% | % KD and Mortality [9]: 0%

O=C(O)CCCCCCCCC(=O)O [1% Sebacic acid]
% KD and Mortality [1]: 3% | % KD and Mortality [2]: 3% | % KD and Mortality [3]: 3% | % KD and Mortality [4]: 3% | % KD and Mortality [5]: 3% | % KD and Mortality [6]: 3% | % KD and Mortality [7]: 3% | % KD and Mortality [8]: 3% | % KD and Mortality [9]: 13%

O=C1O[C@H]([C@@H](O)CO)C(O)=C1O [ascorbic acid]
efficacy enhancement of the insecticide by the additive (summary in words) (details as worded): complete decrease of efficacy

CC1(C)CC(O)CC(C)(C)N1[O]
% KD and Mortality [1]: 0% | % KD and Mortality [2]: 0% | % KD and Mortality [3]: 0% | % KD and Mortality [4]: 0% | % KD and Mortality [5]: 0% | % KD and Mortality [6]: 0% | % KD and Mortality [7]: 0% | % KD and Mortality [8]: 0% | % KD and Mortality [9]: 7%

CC1(C)CC(O)CC(C)(C)N1[O] [Derivative 9, 4-Hydroxy-2,2,6,6 tetramethylpiperidin-1-oxyl]
efficacy enhancement of the insecticide by the additive (summary in words): acted weaker in both tests | efficacy enhancement of the insecticide by the additive (summary in words) (listed as 4-Hydroxy-2,2,6,6 tetramethylpiperidin-1-oxyl (free radical)): inhibited the efficacy of bendiocarb
